The results in this text go back to article PMC8301926 (Biomolecules, 2021).

Structures are written as SMILES.

The assay concerns the target T1, human M4 muscarinic acetylcholine receptor (hM4R) (Homo sapiens, UniProt P08173).
T1 construct: host or cells: CHO cells
T1 sequence (P08173 1-479): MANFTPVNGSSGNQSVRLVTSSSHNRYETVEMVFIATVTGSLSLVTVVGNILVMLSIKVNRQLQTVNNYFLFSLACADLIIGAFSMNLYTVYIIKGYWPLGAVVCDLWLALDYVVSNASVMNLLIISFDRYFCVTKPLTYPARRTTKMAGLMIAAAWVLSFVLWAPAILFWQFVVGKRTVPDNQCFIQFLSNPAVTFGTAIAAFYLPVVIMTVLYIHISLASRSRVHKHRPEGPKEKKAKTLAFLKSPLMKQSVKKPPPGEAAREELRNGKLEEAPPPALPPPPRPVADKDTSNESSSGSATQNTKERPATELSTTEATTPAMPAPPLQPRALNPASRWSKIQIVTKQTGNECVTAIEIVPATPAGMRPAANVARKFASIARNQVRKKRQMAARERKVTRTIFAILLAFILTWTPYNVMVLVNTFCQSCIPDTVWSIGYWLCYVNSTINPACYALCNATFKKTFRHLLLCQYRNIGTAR
Put plainly: M4 (h) functional GPCR assay, antagonist effect, cAMP HTRF. It is filed as cell-based. The conditions noted are these: CHO. On the procedure: The cellular and nuclear receptor functional assays were carried out at Eurofins Cerep (Le Bois I’ Eveque, France) following the in-house protocols (catalog items G029-1262, G029-1474, G030-1658, G030-1659, G031-1243, G031-1244, G032-1670, G032-1671, G033-4217, and G033-4212). The experimental methods for the assays were as described in the previous reports and the general methodology is summarized in the Supplementary Information Table S1. Recombinant human Chinese hamster ovary (CHO) cells and rat basophilic leukemic (RBL) cells were transfected with the GPCR genes of interest (hM1R, hM2R, hM3R, hM4R, and hM5R). The functional assay provided the readouts based on the measurements of calcium ion mobilization (for the Gαq/11-coupled receptors) and cAMP level (for the Gαi/o-coupled receptors).
Stable CHO cells expressing the transfected cDNA of human M2 receptors were suspended in a medium containing HBSS buffer complemented with 20-mM HEPES buffer (pH 7.4) and 500-µM IBMX, whereas the stable human M4 receptor cloned CHO cells were distributed in HBSS buffer with 20-mM HEPES/NaOH (pH 7.4), 70-mM NaCl, 5.33-mM KCl, 1.25-mM CaCl2, 0.5-mM MgCl2, 0.41-mM MgSO4, 0.441-mM KH2PO4, 0.3-mM Na2HPO4, 0.1% glucose, and 500-µM IBMX. […] The cAMP level was calculated as the ratio of the signal measured at 665 nm to that measured at 620 nm. […]
Assay Source Stimulus Incubation Measured Detection References […]

What is called inhibition is how much of the control response was suppressed. High values mean a response far below the control, low ones a response near the control. Molecule `Cc1coc2c1C(=O)C(=O)c1c-2ccc2c(C)cccc12` [Tanshinone I] showed an inhibition at 100 µM of 56.1 ± 2.4%.
